The values that follow come from patent publication EP1785417A2, “Novel non-psychotropic cannabinoids” (priority 2000, dated 2001).

For one assay, the system named is ear edema model in mice. Kind of assay: Ear edema model. Type of assay: in vivo. As to conditions: Mus musculus, Croton oil (CO) as inducer, IP. Summed up: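 Mice received Croton oil or arachidonic acid as inflammation inducer; test compounds were scored for preventing or diminishing the resulting ear edema.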
For another assay, the system named is PGE2. Description: Inhibition of prostaglandin synthesis (PGE2) in LPS-stimulated macrophage cell cultures. It counts as cell-based. To be noted: LPS-stimulated macrophages. The essentials:
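Prostaglandin synthesis measured in macrophage cell cultures after LPS exposure to induce an inflammatory response, with compounds tested for inhibition.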

The test system of the next assay is TNFα. Kind of assay: Inhibition of TNFα in LPS-stimulated macrophage cell cultures (ELISA). It counts as cell-based. As to conditions: LPS-stimulated macrophages. Summed up: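 LPS-activated macrophage cultures, grown as in the PGE2 assay, treated with compounds; TNFα production/release measured by ELISA.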
In general terms: An ELISA detects its analyte on a solid surface through an enzyme-linked reagent.

For a further assay, the system named is AMPA. Kind of assay: Radioligand binding: inhibition of AMPA binding to membranes. More on the design: species or system rat.
The conditions of assay [1]: even at doses several thousand times higher than the ED50 of HU-210; cited from earlier work.
The test system of another assay is kainic acid. Kind of assay: Radioligand binding: inhibition of kainic acid binding to membranes. More on the design: species or system rat.

The term ED50 denotes the dose that gives a 50% effect, or the effect in half of the subjects. Broadly, the inhibition is the drop in the measured response relative to a control, in per cent. Lower therefore signals little suppression. For `CCCCCCC(C)(C)c1cc(O)c2c(c1)OC(C)(C)[C@H]1CC=C(Cn3ccnc3)C[C@H]21` (single isomer, unassigned) [211,095-000], in the assay on ear edema model in mice, the ED50 was found to be 29 µmol/kg. Besides, the results for the inhibition at 10 µM with PGE2 and in the assay with TNFα were 72% and 11%, respectively.

Consider `CCCCCCC(C)(C)c1cc(O)c2c(c1)OC(C)(C)[C@H]1CC=C(CO)C[C@H]21` [211,007-000 HU-211, 1,1 dimethyl heptyl-(3 S,4S)-7-hydroxy-Δ^6-tetrahydrocannabinol, reference compound], for which the “inhibition of AMPA binding” value in the assay with AMPA was “unable to inhibit”. The compound also yielded a median effective dose (ED50) in the assay with ear edema model in mice of 25 µmol/kg. Moreover, the inhibition at 10 µM with PGE2 was 54%; with TNFα, 33%. For the same compound, in assay [1], the “cannabimimetic activity” value was “inactive”. In addition, the “inhibition of kainic acid binding” value with kainic acid is “unable to inhibit”.
